In US12655107B2 (The United States of America, as represented by the …, priority 2018, dated 2026):
Where two headings read alike, the source gives them in different places.

Key:
[1] = test system: DU145; assay: MTT cytotoxicity assay, DU145; format: cell-based, human
Experimental: (§1) Cytotoxicity Assays. […] The cells were incubated with the tested compounds for 72 hours in a five-dose assay ranging from 0.01 to 100 μM concentration. After drug treatments, MTT solution was added to test the percentage growth of tumor cells.
(§2) The compounds were incubated with the cells for 72 hours in a five-dose assay ranging from 0.01 to 100 μM concentration. At the end of the incubation, the MTT solution was added to test the percentage growth of tumor cells.
(§3) For the drug treatment experiments, the cancer cells were treated with the compounds (predissolved in DMSO) at a five-dose assay ranging from 0.01 to 100 μM concentration. […] After 4 h incubation, the formazan crystal formed in the well was dissolved with […] of DMSO for optical density reading at 570 nm. The GI50 value was calculated by nonlinear regression analysis (GraphPad Prism).

[2] = test system: A549; assay: MTT cytotoxicity assay, A549; format: cell-based, human; settings: 72 h, Table 7, read-out: GI50 ± SC (μM) A-49
Experimental: as §1, §2, §3

[3] = target: T1, Top1 (Homo sapiens, UniProt P11387); assay: Top1-mediated DNA cleavage assay; format: biochemical; settings: graded relative to CPT at 1 μM, Table 7
T1 sequence (P11387 1-765): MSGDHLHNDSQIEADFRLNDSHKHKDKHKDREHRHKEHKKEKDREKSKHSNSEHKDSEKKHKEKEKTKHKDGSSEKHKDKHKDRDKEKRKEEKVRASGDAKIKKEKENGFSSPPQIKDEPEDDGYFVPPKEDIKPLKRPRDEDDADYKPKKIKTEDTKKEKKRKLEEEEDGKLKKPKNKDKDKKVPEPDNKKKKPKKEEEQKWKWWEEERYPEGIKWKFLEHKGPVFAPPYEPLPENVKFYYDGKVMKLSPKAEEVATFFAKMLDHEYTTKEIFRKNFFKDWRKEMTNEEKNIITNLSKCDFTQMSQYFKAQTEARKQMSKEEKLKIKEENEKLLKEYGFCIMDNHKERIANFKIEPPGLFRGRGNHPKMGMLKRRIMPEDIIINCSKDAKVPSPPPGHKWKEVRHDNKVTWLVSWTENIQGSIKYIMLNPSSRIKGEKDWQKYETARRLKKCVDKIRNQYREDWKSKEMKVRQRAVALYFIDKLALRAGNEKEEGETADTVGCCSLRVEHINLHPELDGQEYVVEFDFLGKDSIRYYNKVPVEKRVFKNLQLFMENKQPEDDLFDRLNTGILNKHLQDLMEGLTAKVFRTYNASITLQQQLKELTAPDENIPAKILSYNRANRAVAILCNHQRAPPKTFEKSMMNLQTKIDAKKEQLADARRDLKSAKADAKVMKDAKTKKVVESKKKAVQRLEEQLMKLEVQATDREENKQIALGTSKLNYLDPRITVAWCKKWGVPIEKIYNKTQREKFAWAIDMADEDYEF

[4] = test system: K-562; assay: NCI-60 cytotoxicity; format: cell-based, human; settings: NCI-60 Leukemia, 48 h
Experimental: (§4) Cell growth inhibition (GI50 in Table 3) was calculated relative to cells without compound treatment and the time zero control.
(§5) Regarding Table 8, according to the NCI established procedures, the cells were incubated with 67 or 50 for 48 hours and stained with sulforhodamine B dye.

[5] = test system: SK-MEL-5; assay: NCI-60 cytotoxicity; format: cell-based, human; settings: NCI-60 Melanoma, 48 h
Experimental: as §4, §5

[6] = test system: SN 12C; assay: NCI-60 cytotoxicity; format: cell-based, human; settings: NCI-60 Renal Cancer, 48 h
Experimental: as §4, §5

[7] = test system: MOLT-4; assay: NCI-60 cytotoxicity; format: cell-based, human; settings: NCI-60 Leukemia, 48 h
Experimental: as §4, §5

[8] = test system: MDA-MB-468; assay: NCI-60 cytotoxicity; format: cell-based, human; settings: NCI-60 Breast Cancer, 48 h
Experimental: as §4, §5

[9] = test system: NCI-H460; assay: NCI-60 cytotoxicity; format: cell-based, human; settings: NCI-60 Non-Small Cell Lung Cancer, 48 h
Experimental: as §4, §5

[10] = test system: SK-MEL-28; assay: NCI-60 cytotoxicity; format: cell-based, human; settings: NCI-60 Melanoma, 48 h
Experimental: as §4, §5

[11] = test system: BT-549; assay: NCI-60 cytotoxicity; format: cell-based, human; settings: NCI-60 Breast Cancer, 48 h
Experimental: as §4, §5

[12] = test system: RXF 393; assay: NCI-60 cytotoxicity; format: cell-based, human; settings: NCI-60 Renal Cancer, 48 h
Experimental: as §4, §5

[13] = test system: SW-620; assay: NCI-60 cytotoxicity; format: cell-based, human; settings: NCI-60 Colon Cancer, 48 h
Experimental: as §4, §5

[14] = test system: A498; assay: NCI-60 cytotoxicity; format: cell-based, human; settings: NCI-60 Renal Cancer, 48 h
Experimental: as §4, §5

[15] = test system: HCT116; assay: NCI-60 cytotoxicity; format: cell-based, human; settings: NCI-60 Colon Cancer, 48 h
Experimental: as §4, §5

[16] = test system: LOX IMVI; assay: NCI-60 cytotoxicity; format: cell-based, human; settings: NCI-60 Melanoma, 48 h
Experimental: as §4, §5

[17] = test system: 786-0; assay: NCI-60 cytotoxicity; format: cell-based, human; settings: NCI-60 Renal Cancer, 48 h
Experimental: as §4, §5

[18] = test system: MDA-MB-231/ATCC; assay: NCI-60 cytotoxicity; format: cell-based, human; settings: NCI-60 Breast Cancer, 48 h
Experimental: as §4, §5

[19] = test system: DU-145; assay: NCI-60 cytotoxicity; format: cell-based, human; settings: read-out: GI50 (μM) DU-145; NCI-60 Prostate Cancer, 48 h
Experimental: as §4, §5

[20] = test system: OVCAR-8; assay: NCI-60 cytotoxicity; format: cell-based, human; settings: NCI-60 Ovarian Cancer, 48 h
Experimental: as §4, §5

[21] = test system: CAKI-1; assay: NCI-60 cytotoxicity; format: cell-based, human; settings: NCI-60 Renal Cancer, 48 h
Experimental: as §4, §5

[22] = test system: NCI-H522; assay: NCI-60 cytotoxicity; format: cell-based, human; settings: NCI-60 Non-Small Cell Lung Cancer, 48 h
Experimental: as §4, §5

[23] = test system: HCC-2998; assay: NCI-60 cytotoxicity; format: cell-based, human; settings: NCI-60 Colon Cancer, 48 h
Experimental: as §4, §5

[24] = test system: IGROV1; assay: NCI-60 cytotoxicity; format: cell-based, human; settings: NCI-60 Ovarian Cancer, 48 h
Experimental: as §4, §5

[25] = test system: OVCAR-5; assay: NCI-60 cytotoxicity; format: cell-based, human; settings: NCI-60 Ovarian Cancer, 48 h
Experimental: as §4, §5

[26] = test system: NCI-60 cell lines; assay: NCI-60 cytotoxicity, mean graph midpoint; settings: read-out: GI50 (μM) MGM; mean graph midpoint of all cell lines, 48 h, sulforhodamine B
[27] = test system: HCT116; assay: MTT cytotoxicity assay, HCT116; format: cell-based, human
Experimental: as §1, §2, §3

[28] = 72 h, Table 7, read-out: GI50 ± SC (μM) DU145
[29] = 72 h, Table 7, read-out: GI50 ± SC (μM) HCT116

| Compound | GI50 [1, 28] | GI50 [2] | TOP1 inhibition [3] | GI50 [4] | GI50 [5] | GI50 [6] | GI50 [7] | GI50 [8] | GI50 [9] | GI50 [10] | GI50 [11] | GI50 [12] | GI50 [13] | GI50 [14] | GI50 [15] | GI50 [16] | GI50 [17] | GI50 [18] | GI50 [19] | GI50 [20] | other results |
| --- | --- | --- | --- | --- | --- | --- | --- | --- | --- | --- | --- | --- | --- | --- | --- | --- | --- | --- | --- | --- | --- |
| COc1cc2c(=O)n(CCN)c3c4cc5c(cc4ccc3c2cc1OC)OCO5 [Compound 67, 12-(2-aminoethyl)-2,3-dimethoxy-[1,3]dioxolo[4′,5′:4,5]benzo[1,2-c]phenanthridin-13(12-H)-one] | 0.014 ± 0.001 µM | 0.98 ± 0.014 µM | ++ (++, between 50% and 75% activity) | 0.161 µM | 0.614 µM | 0.739 µM | 0.0633 µM | 0.157 µM | 0.23 µM | 3.05 µM | 0.918 µM | 0.929 µM | 0.243 µM | 1.23 µM | 0.285 µM | 0.246 µM | 0.464 µM | 1.28 µM | 0.527 µM | 0.93 µM | GI50 [21]: 0.295 µM; GI50 [22]: 0.0875 µM; GI50 [23]: 1.02 µM; GI50 [24]: 0.5 µM; GI50 [25]: 1.2 µM; GI50 [26]: 0.525 µM; GI50 [27, 29]: 0.29 ± 0.019 µM |
| CNCCn1c(=O)c2cc(OC)c(OC)cc2c2ccc3cc4c(cc3c21)OCO4 [Compound 50, 2,3-dimethoxy-12-(2-(methylamino)ethyl)-[1,3]dioxolo[4′5′:4,5]benzo[1,2-c]phenanthridin-13(12H)-one] | 0.002 µM | 0.97 µM | +++ (+++, between 75% and 95% activity) | 0.0394 µM | 0.0909 µM | 0.171 µM | 0.0234 µM | 0.0599 µM | 0.0212 µM | 0.573 µM | 0.202 µM | 0.16 µM | 0.0658 µM | 0.127 µM | 0.0515 µM | 0.0389 µM | 0.0703 µM | 0.362 µM | 0.13 µM | 0.132 µM | GI50 ([1]; read-out: GI50 ± SD (μM) Parental cell line DU-145, drug-resistance panel): 0.002 ± 0.001 µM; GI50 [21]: 0.0644 µM; GI50 [22]: 0.0274 µM; GI50 [23]: 0.156 µM; GI50 [24]: 0.145 µM; GI50 [25]: 0.183 µM; GI50 [26]: 0.0977 µM; GI50 [27, 29]: 0.036 µM; GI50 ([27]; drug-resistance panel, read-out: GI50 ± SD (μM) Parental cell line HCT116): 0.036 ± 0.003 µM |
